What was measured:
[1] = system: rat; conditions: Prenatal developmental toxicity study, sprague dawley, Injection, Subcutaneous, dose end: 8 GD
[2] = system: rat; conditions: Prenatal developmental toxicity study; wistar; Oral; Gavage/Intubation; dose end: 15 GD; group: developmental; developmental / developmental malformation / bone / incomplete ossification + developmental / developmental malformation / bone / …
[3] = system: rabbit; conditions: Prenatal developmental toxicity study, new zealand white, Dermal, Topical, dose end: 19 GD
[4] = system: rat; conditions: Subchronic oral toxicity in rodents, sprague dawley, Gavage/Intubation, dose end: 12 week, group: systemic, systemic / clinical chemistry / alkaline phosphatase (alp/alk) / alkaline phosphatase (alp/alk) + systemic / clinical chemistry / albumin / …
[5] = system: rat; conditions: Subchronic oral toxicity in rodents, sprague dawley, Gavage/Intubation, dose end: 13 week, group: systemic
[6] = system: rat; conditions: Developmental neurotoxicity study, sprague dawley, Oral, Gavage/Intubation, dose end: 97 PND, group: cannot be grouped
[7] = system: rat; conditions: Developmental neurotoxicity study; sprague dawley; Oral; Gavage/Intubation; dose end: 90 PND; group: cannot be grouped; developmental / developmental landmark / eye opening / eye opening + reproductive / offspring survival early / dead fetuses / dead fetuses…
[8] = system: rat; conditions: Prenatal developmental toxicity study, wistar, Dermal, Topical, dose end: 16 GD
[9] = system: mouse; conditions: Sub-acute repeat dose toxicity, other, Oral, Gavage/Intubation, dose end: 21 day, group: systemic
[10] = group: developmental, developmental / developmental malformation / general / crown-rump length + systemic / in life observation / body weight / fetal weight
[11] = group: maternal, reproductive / reproductive performance / resorptions / resorptions + systemic / in life observation / body weight / body weight + systemic…
[12] = group: developmental, systemic / in life observation / body weight / fetal weight
[13] = group: maternal, systemic / in life observation / body weight / body weight + systemic / in life observation / body weight / body weight gain + systemic / in…
[14] = systemic / clinical chemistry / alkaline phosphatase (alp/alk) / alkaline phosphatase (alp/alk) + systemic / hematology / erythrocyte (rbc) …
[15] = systemic / in life observation / body weight / offspring (pup) weight gain
[16] = group: developmental, developmental / developmental malformation / bone / supernumerary + systemic / in life observation / body weight / fetal weight
[17] = group: maternal, systemic / in life observation / clinical signs / [other] + systemic / in life observation / clinical signs / erythema + systemic / in life …
[18] = systemic / clinical chemistry / alkaline phosphatase (alp/alk) / alkaline phosphatase (alp/alk) + systemic / pathology microscopic / bone / …
[19] = systemic / hematology / hematocrit (hct) / hematocrit (hct) + systemic / hematology / hemoglobin (hgb) / hemoglobin (hgb)

With `CC1=C(/C=C/C(C)=C/C=C/C(C)=C/C(=O)O)C(C)(C)CCC1` [trans-Retinoic acid] the LEL [1, 10] was 48.1 mg/kg/day, the LOAEL [1, 10] was > 144 mg/kg/day and the NEL [1, 10] was 24 mg/kg/day. The NOAEL [1, 10] was ≥ 144 mg/kg/day, the LOAEL [1, 11] was > 144 mg/kg/day and the NEL [1, 11] was 48.1 mg/kg/day. The NOAEL [1, 11] was ≥ 144 mg/kg/day, the LEL ([1]; group: maternal, systemic / in life observation / body weight / body weight + systemic / in life observation / clinical signs / abnormal gait + systemic / in…) was 96.1 mg/kg/day and the LEL [2] was 5 mg/kg/day. For the same compound, the LOAEL [2] was > 10 mg/kg/day, the NEL [2] was 2.5 mg/kg/day and the NOAEL [2] was ≥ 10 mg/kg/day. For the same compound, the LEL [3, 12] was 0.5 mg/kg/day, the LOAEL [3, 12] was > 0.5 mg/kg/day and the NEL [3, 12] was 0.05 mg/kg/day. The NOAEL [3, 12] was ≥ 0.5 mg/kg/day, the LEL [3, 13] was 0.05 mg/kg/day and the LOAEL [3, 13] was > 0.5 mg/kg/day. For the same compound, the NEL [3, 13] was < 0.05 mg/kg/day, the NOAEL [3, 13] was ≥ 0.5 mg/kg/day and the LEL [4] was 0.5 mg/kg/day. The LOAEL [4] was > 5 mg/kg/day, the NEL [4] was < 0.5 mg/kg/day and the NOAEL [4] was ≥ 5 mg/kg/day. For the same compound, the LOAEL [5, 14] was > 50 mg/kg/day, the NEL [5, 14] was 1 mg/kg/day and the NOAEL [5, 14] was ≥ 50 mg/kg/day. For the same compound, the LEL ([5]; systemic / clinical chemistry / alkaline phosphatase (alp/alk) / alkaline phosphatase (alp/alk) + systemic / pathology microscopic / lymph …) was 4 mg/kg/day, the LOAEL [6, 15] was > 6 mg/kg/day and the NOAEL [6, 15] was ≥ 6 mg/kg/day. The LEL ([6]; systemic / in life observation / clinical signs / impaired foot spread) was 2.5 mg/kg/day, the LEL [7] was 2.5 mg/kg/day and the LOAEL [7] was > 2.5 mg/kg/day. For the same compound, the NEL [7] was < 2.5 mg/kg/day, the NOAEL [7] was ≥ 2.5 mg/kg/day and the LEL ([8]; group: developmental, developmental / developmental malformation / bone / supernumerary) was 2.5 mg/kg/day. The LOAEL [8, 16] was > 20 mg/kg/day, the NEL [8, 16] was 1 mg/kg/day and the NOAEL [8, 16] was ≥ 20 mg/kg/day. For the same compound, the LOAEL [8, 13] was > 20 mg/kg/day, the NOAEL [8, 13] was ≥ 20 mg/kg/day and the LEL [8, 17] was 1 mg/kg/day. The NEL [8, 17] was < 1 mg/kg/day, the LOAEL [9, 18] was > 100 mg/kg/day and the NOAEL [9, 18] was ≥ 100 mg/kg/day. For the same compound, the LEL [9, 19] was 3 mg/kg/day and the NEL [9, 19] was < 3 mg/kg/day.
